Measurements published in article PMC7380166, “How to Study the Metabolism of New Psychoactive Substances for the Purpose of Toxicological Screenings—A Follow-Up Study Comparing Pooled Human Liver S9, HepaRG Cells, and Zebrafish Larvae” (Frontiers in Chemistry, 2020).

Experiments:
Set-up in all cases: key: +, detected; –: −, not detected
CYP2C9 = target: T1, CYP2C9 (Homo sapiens, UniProt P11712); assay: Monooxygenases activity screening, CYP2C9; format: in vitro ADME; settings: 25 μM 4F-MDMB-BINACA, 50 pmol/ml enzyme, 30 min, 37°C, duplicate
T1 construct: purchased Corning; host or cells: baculovirus-transfected insect cell microsomes (Supersomes)
T1 sequence (P11712 whole entry): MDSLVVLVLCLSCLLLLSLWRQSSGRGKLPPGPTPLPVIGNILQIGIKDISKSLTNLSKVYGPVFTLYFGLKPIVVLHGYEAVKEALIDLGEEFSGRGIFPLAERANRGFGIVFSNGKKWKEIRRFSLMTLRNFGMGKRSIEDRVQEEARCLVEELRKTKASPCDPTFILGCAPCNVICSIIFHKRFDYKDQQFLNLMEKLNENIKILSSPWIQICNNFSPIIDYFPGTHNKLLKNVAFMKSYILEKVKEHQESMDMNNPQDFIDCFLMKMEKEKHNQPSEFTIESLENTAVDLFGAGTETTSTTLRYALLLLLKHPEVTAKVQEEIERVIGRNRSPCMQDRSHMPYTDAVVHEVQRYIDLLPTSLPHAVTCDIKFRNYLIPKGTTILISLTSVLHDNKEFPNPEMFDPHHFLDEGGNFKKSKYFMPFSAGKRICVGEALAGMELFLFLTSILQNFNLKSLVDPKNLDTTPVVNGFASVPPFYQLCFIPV
Description: (§1) According to an established protocol (Wagmann et al., [2016]), the final volume per reaction tube was 50 μl with a final 4F-MDMB-BINACA concentration of 25 μM and enzyme concentrations of 50 pmol/ml for CYP1A2, CYP2A6, CYP2B6, CYP2C8, CYP2C9, CYP2C19, CYP2D6, CYP2E1, CYP3A4, and CYP3A5, respectively, or 0.25 mg protein/ml for FMO3. Furthermore, the reaction mixture contained 90 mM phosphate buffer (pH 7.4), superoxide dismutase (200 U/ml), isocitrate (5 mM), MgCl2 (5 mM), isocitrate dehydrogenase (0.5 U/ml), and NADP^+ (1.2 mM). The phosphate buffer was replaced with Tris buffer (90 mM) for incubations with CYP2A6 and CYP2C9 according to the manufacturer's recommendation. All incubations were performed at 37°C for 30 min and terminated by adding 50 μl of ice-cold acetonitrile. Afterwards, the mixtures were centrifuged at 18,407 × g for 5 min, 70 μl of the supernatants was transferred into autosampler vials, and 1 μl was injected onto the LC-HRMS/MS system. Positive control incubations were performed with pHLM (1 mg microsomal protein/ml), and negative controls without enzyme were prepared to identify non-metabolically formed compounds. All incubations were done in duplicate.

[1] = Monooxygenases activity screening, pHLM positive control; format: in vitro ADME, human; settings: 25 μM 4F-MDMB-BINACA, 1 mg microsomal protein/ml, 30 min, 37°C, duplicate
Description: as §1

CYP2B6 = target: T2, CYP2B6 (Homo sapiens, UniProt P20813); assay: Monooxygenases activity screening, CYP2B6; format: in vitro ADME; settings: 25 μM 4F-MDMB-BINACA, 50 pmol/ml enzyme, 30 min, 37°C, duplicate
T2 construct: purchased Corning; host or cells: baculovirus-transfected insect cell microsomes (Supersomes)
T2 sequence (P20813 1-491): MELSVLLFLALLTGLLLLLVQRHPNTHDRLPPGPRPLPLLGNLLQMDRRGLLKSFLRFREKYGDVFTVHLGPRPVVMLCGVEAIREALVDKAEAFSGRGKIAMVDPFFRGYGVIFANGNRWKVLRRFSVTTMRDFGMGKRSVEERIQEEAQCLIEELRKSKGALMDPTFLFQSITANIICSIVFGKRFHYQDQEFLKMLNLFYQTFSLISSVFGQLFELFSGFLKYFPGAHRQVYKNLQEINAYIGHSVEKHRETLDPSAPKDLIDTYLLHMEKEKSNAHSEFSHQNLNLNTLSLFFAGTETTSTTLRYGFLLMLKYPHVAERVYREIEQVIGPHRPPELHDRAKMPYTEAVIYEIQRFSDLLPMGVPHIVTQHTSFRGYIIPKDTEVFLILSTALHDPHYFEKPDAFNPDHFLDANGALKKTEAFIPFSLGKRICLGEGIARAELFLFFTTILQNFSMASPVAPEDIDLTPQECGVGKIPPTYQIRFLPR
Description: as §1

CYP1A2 = target: T3, CYP1A2 (Homo sapiens, UniProt P05177); assay: Monooxygenases activity screening, CYP1A2; format: in vitro ADME; settings: 25 μM 4F-MDMB-BINACA, 50 pmol/ml enzyme, 30 min, 37°C, duplicate
T3 construct: purchased Corning; host or cells: baculovirus-transfected insect cell microsomes (Supersomes)
T3 sequence (P05177 1-516): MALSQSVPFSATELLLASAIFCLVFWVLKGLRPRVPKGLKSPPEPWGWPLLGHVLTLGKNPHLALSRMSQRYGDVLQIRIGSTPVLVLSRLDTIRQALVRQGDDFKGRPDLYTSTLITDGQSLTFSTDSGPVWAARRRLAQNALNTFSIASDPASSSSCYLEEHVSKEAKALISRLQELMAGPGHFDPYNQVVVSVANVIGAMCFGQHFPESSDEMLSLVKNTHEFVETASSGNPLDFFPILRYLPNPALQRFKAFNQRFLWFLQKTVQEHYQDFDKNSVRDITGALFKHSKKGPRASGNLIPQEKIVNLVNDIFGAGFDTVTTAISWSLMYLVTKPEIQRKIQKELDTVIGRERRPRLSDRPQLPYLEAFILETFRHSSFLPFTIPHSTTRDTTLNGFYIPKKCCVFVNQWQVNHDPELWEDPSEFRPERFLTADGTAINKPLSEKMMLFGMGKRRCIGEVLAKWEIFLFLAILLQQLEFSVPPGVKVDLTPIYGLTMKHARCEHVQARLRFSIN
Description: as §1

CYP2A6 = target: T4, CYP2A6 (Homo sapiens, UniProt P11509); assay: Monooxygenases activity screening, CYP2A6; format: in vitro ADME; settings: 25 μM 4F-MDMB-BINACA, 50 pmol/ml enzyme, 30 min, 37°C, duplicate
T4 construct: purchased Corning; host or cells: baculovirus-transfected insect cell microsomes (Supersomes)
T4 sequence (P11509 1-494): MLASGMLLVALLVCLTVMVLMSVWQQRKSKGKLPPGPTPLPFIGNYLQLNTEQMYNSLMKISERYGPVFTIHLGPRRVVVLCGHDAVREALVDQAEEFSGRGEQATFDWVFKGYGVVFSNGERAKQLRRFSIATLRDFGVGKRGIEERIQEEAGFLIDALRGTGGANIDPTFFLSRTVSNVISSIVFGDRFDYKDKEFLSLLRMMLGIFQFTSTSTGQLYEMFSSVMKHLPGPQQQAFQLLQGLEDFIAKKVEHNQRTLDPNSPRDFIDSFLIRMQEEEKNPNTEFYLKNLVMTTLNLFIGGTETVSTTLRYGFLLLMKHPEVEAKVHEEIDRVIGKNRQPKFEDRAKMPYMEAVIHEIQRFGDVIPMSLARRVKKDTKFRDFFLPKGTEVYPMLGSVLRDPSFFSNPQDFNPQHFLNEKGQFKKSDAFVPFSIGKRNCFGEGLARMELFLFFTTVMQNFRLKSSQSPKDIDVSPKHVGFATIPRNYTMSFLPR
Description: as §1

CYP2E1 = target: T5, CYP2E1 (Homo sapiens, UniProt P05181); assay: Monooxygenases activity screening, CYP2E1; format: in vitro ADME; settings: 25 μM 4F-MDMB-BINACA, 50 pmol/ml enzyme, 30 min, 37°C, duplicate
T5 construct: purchased Corning; host or cells: baculovirus-transfected insect cell microsomes (Supersomes)
T5 sequence (P05181 whole entry): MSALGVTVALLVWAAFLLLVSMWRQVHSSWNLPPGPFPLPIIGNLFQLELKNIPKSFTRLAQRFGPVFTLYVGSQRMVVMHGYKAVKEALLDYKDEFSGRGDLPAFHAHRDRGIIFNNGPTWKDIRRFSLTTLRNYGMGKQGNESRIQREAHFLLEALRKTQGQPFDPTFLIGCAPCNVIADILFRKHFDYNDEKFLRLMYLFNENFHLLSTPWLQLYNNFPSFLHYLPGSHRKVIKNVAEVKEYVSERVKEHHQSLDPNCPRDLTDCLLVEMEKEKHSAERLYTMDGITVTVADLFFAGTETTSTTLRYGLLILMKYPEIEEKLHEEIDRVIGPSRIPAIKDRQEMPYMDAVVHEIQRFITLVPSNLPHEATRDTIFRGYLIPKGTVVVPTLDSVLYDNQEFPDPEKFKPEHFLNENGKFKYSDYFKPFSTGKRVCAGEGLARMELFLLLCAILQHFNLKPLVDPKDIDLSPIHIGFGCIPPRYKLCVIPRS
Description: as §1

CYP2C8 = target: T6, CYP2C8 (Homo sapiens, UniProt P10632); assay: Monooxygenases activity screening, CYP2C8; format: in vitro ADME; settings: 25 μM 4F-MDMB-BINACA, 50 pmol/ml enzyme, 30 min, 37°C, duplicate
T6 construct: purchased Corning; host or cells: baculovirus-transfected insect cell microsomes (Supersomes)
T6 sequence (P10632 1-490): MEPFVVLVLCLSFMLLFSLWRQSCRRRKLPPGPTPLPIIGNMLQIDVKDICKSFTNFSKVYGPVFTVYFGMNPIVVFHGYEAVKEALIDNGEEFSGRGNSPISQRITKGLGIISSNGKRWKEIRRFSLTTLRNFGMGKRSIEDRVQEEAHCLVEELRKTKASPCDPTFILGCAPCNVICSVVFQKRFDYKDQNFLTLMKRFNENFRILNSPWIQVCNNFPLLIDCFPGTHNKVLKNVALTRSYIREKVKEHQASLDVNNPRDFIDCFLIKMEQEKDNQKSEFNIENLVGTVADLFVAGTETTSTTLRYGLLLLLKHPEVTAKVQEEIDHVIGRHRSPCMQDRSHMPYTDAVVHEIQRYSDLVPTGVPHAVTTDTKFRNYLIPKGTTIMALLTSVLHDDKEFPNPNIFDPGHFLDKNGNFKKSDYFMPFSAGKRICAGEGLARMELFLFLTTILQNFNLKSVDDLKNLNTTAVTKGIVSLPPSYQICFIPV
Description: as §1

SMILES	Detection of metabolite in incubation with CYP2C9 (CYP2C9)	Detection of metabolite in incubation with pHLM [1]	Detection of metabolite in incubation with CYP2B6 (CYP2B6)	Detection of metabolite in incubation with CYP1A2 (CYP1A2)	Detection of metabolite in incubation with CYP2A6 (CYP2A6)	Detection of metabolite in incubation with CYP2E1 (CYP2E1)	Detection of metabolite in incubation with CYP2C8 (CYP2C8)
O=C(O)c1nn(CCCCF)c2ccccc12 [MB1]	–	+	–	–	–	–	–
COC(=O)[C@@H](NC(=O)c1n[nH]c2ccccc12)C(C)(C)C [MB4]	–	+	–	+	–	–	–
CC(C)(C)C(NC(=O)c1nn(CCCCF)c2ccccc12)C(=O)O (centres unmarked) [MB8]	–	+	–	–	–	–	–
COC(=O)[C@@H](NC(=O)c1nn(CCCCO)c2ccccc12)C(C)(C)C [MB11]	–	+	–	–	–	–	+
COC(=O)[C@@H](NC(=O)c1nn(CCCCF)c2ccccc12)C(C)(C)CO [MB16]	–	+	–	–	–	–	–
